In brackets after ≈: the same amount, converted by molar mass.
What was measured:
E. coli K12 PBP3 = molecular target: T1, E. coli K12 PBP3 (Escherichia coli, UniProt P0AD68); experiment: biochemical; format: binding
T1 construct: made in house
Procedure, shortened: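 Fluorescence polarization (ex 490/em 520 nm) competition of inhibitors against Bocillin-FL at 0.1 μM, read up to 60 min. Final PBP levels: E. coli PBP3 1.5 μM; A. baumannii PBP2 2.5 μM, PBP3 0.2 μM in Tris pH 8.0/NaCl/glycerol/Tween 20; N. gonorrhoeae PBP2 […] in Hepes pH 8.0/NaCl/glycerol. EC50 = concentration halving PBP-bound Bocillin-FL.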

P. aeruginosa PBP3 = molecular target: T2, P. aeruginosa PBP3 (Pseudomonas aeruginosa, UniProt G3XD46); experiment: Bocillin-FL fluorescence polarization competition binding assay, P. aeruginosa PBP3; details: fluorescence polarization competition binding assay using Bocillin-FL
T2 construct: made in house
T2 sequence (G3XD46 whole entry): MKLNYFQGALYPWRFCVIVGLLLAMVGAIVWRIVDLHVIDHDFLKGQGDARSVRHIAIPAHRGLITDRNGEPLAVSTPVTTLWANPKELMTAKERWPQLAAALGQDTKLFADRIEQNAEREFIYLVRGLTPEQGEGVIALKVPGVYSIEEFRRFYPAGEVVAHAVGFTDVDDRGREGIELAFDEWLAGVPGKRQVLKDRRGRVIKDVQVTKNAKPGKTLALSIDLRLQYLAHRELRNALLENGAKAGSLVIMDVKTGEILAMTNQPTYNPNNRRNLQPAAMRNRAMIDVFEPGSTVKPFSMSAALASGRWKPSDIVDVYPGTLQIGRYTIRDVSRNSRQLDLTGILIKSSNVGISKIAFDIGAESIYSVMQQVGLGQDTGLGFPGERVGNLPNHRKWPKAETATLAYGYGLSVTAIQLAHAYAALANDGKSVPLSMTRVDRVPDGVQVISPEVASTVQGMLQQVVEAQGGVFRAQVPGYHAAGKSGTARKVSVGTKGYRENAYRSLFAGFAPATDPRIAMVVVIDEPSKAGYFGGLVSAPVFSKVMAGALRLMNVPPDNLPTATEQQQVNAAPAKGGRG
Procedure, shortened: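 Binding of boronic acid inhibitors to purified Pseudomonas aeruginosa (PA01) PBP3 was measured by fluorescence polarization competition with Bocillin-FL, a fluorescent penicillin V. Reactions of 80 μl contained 0.75 μM PBP3 and 0.1 μM Bocillin-FL in 50 mM Hepes (pH 8.0), 300 mM NaCl and 5% (v/v) glycerol, in black 384-well plates. FP (Excitation 490 nm, Emission 520 nm) was read for up to 60 minutes. EC50 is the concentration that halves PBP-bound Bocillin-FL.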

E. coli 901C = experiment: Broth microdilution MIC in CAMHB; format: cell-based; details: Escherichia coli; E. coli 901C (hyper-permeable); MHB; read-out: Minimum Inhibitory Concentration, E. coli 901C
Procedure, shortened: (§1)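 Per CLSI broth microdilution, colonies were grown 3-5 h at 37° C in cation-adjusted Mueller Hinton broth, then diluted to a starting inoculum of 2-8×10^5 CFU/mL against 2-fold serial compound dilutions. Plates were incubated 16-20 h at 37° C, and MIC was read visually as the lowest concentration with no growth.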

E. coli AG100 = experiment: Broth microdilution MIC in CAMHB; format: cell-based; details: Escherichia coli; E. coli AG100 (wild-type parent); MHB; read-out: Minimum Inhibitory Concentration, E. coli AG100
Procedure, shortened: as §1

E. coli ATCC 25922 = experiment: Broth microdilution MIC in CAMHB; format: cell-based; details: Escherichia coli, ATCC25922; E. coli ATCC 25922; MHB; read-out: Minimum Inhibitory Concentration, E. coli 25922
Procedure, shortened: as §1

[1] = system: K. pneumoniae UMM producing SHV-5 and KPC-2; experiment: Broth microdilution MIC in CAMHB; format: cell-based; details: Klebsiella pneumoniae, read-out: Minimum Inhibitory Concentration, K. pneumoniae UMM
Procedure, shortened: as §1

A. baumannii ATCC 19606 = experiment: Broth microdilution MIC in CAMHB; format: cell-based; details: Acinetobacter baumannii, ATCC19606; MHB; read-out: Minimum Inhibitory Concentration, A. baumannii ATCC 19606
Procedure, shortened: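 CLSI broth microdilution in CAMHB: 2-fold compound dilutions inoculated at 2-8×10^5 CFU/mL from 3-5 h log-phase cultures. Incubated at 37 °C for 16-20 h (Enterobacteriaceae, Pseudomonas); MIC read visually as lowest concentration without growth. Strains include hyper-permeable and efflux-deficient mutants.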

P. aeruginosa ATCC 27853 = experiment: Broth microdilution MIC in CAMHB; format: cell-based; details: Pseudomonas aeruginosa, ATCC27853; MHB; read-out: Minimum Inhibitory Concentration, P. aeruginosa ATCC 27853
Procedure, shortened: as §1

P. aeruginosa ATCC 35151 = experiment: Broth microdilution MIC in CAMHB; format: cell-based; details: Pseudomonas aeruginosa, ATCC35151; MHB; hyper-permeable strain; read-out: Minimum Inhibitory Concentration, P. aeruginosa ATCC 35151
Procedure, shortened: as §1

T1 sequence (P0AD68 1-577): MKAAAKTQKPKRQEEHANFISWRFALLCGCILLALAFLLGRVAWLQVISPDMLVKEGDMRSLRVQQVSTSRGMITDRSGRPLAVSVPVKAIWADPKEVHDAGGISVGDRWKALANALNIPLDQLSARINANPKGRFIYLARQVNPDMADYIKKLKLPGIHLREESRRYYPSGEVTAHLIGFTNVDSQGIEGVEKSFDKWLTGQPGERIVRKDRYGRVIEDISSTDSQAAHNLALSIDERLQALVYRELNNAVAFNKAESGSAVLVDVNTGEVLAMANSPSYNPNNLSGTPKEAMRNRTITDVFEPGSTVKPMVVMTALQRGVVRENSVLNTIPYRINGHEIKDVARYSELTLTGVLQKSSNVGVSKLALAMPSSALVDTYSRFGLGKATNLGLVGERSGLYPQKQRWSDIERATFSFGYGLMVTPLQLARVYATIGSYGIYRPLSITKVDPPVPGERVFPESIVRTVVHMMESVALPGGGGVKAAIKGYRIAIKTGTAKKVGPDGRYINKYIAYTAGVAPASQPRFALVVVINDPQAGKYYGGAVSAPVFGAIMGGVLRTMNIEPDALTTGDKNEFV

SMILES | EC50 (E. coli K12 PBP3) | P. aeruginosa PBP3 Potency (P. aeruginosa PBP3) | MIC (E. coli 901C) | MIC (E. coli AG100) | MIC (E. coli ATCC 25922) | MIC [1] | MIC (A. baumannii ATCC 19606) | MIC (P. aeruginosa ATCC 27853) | MIC (P. aeruginosa ATCC 35151)
CCN1CCN(C(=O)N[C@@H](C(=O)N[C@H]2Cc3ccc(F)c(C(=O)O)c3OB2O)c2c(Cl)cc(O)c(O)c2F)C(=O)C1=O (single isomer, unassigned) [Example 207] | < 30 µM | D (D represents a potency <10 μM) |  |  |  |  |  |  | 
O=C(NCCCN1CCN(C(=O)NC(C(=O)N[C@H]2Cc3cccc(C(=O)O)c3OB2O)c2ncc(O)cc2F)C(=O)C1=O)c1ccc(O)c(O)c1Cl (stereo partly drawn) [Example 1, (3R)-3-(2-(4-(3-(2-chloro-3,4-dihydroxybenzamido)propyl)-2,3-dioxopiperazine-1-carboxamido)-2-(3-fluoro-5-hydroxypyridin-2-yl)acetamido)-2-hydroxy-3,4-dihydro-2H-benzo[e][1,2]oxaborinine-8-carboxylic acid] | < 30 µM | D (D represents a potency <10 μM) | 8 to 16 µg/mL (≈ 10.8 to 21.5 µM) | 32 to 64 µg/mL (≈ 43.1 to 86.2 µM) | > 128 µg/mL | 8 to 16 µg/mL (≈ 10.8 to 21.5 µM) |  |  | 
NCCN1CCN(C(=O)N[C@@H](C(=O)N[C@H]2Cc3ccc(F)c(C(=O)O)c3OB2O)c2c(F)c(F)c(O)c(O)c2Cl)C(=O)C1=O [Example 226, (R)-3-((R)-2-(4-(2-aminoethyl)-2,3-dioxopiperazine-1-carboxamido)-2-(2-chloro-5,6-difluoro-3,4-dihydroxyphenyl)acetamido)-7-fluoro-2-hydroxy-3,4-dihydro-2H-benzo[e][1,2]oxaborinine-8-carboxylic acid] |  | B (B represents a potency between 30 μM and 500 μM inclusive) |  |  |  |  |  |  | 
CCN1CCN(C(=O)N[C@@H](C(=O)N[C@H]2Cc3cc(Cl)c(F)c(C(=O)O)c3OB2O)c2c(F)cc(O)c(O)c2Cl)C(=O)C1=O [Example 191, (R)-6-chloro-3-((R)-2-(2-chloro-6-fluoro-3,4-dihydroxyphenyl)-2-(4-ethyl-2,3-dioxopiperazine-1-carboxamido)acetamido)-7-fluoro-2-hydroxy-3,4-dihydro-2H-benzo[e][1,2]oxaborinine-8-carboxylic acid] | < 30 µM | D (D represents a potency <10 μM) |  |  |  |  |  |  | 
O=C(NCCCN1CCN(C(=O)NC(C(=O)N[C@H]2Cc3ccc(F)c(C(=O)O)c3OB2O)c2ncc(O)cc2F)C(=O)C1=O)c1ccc(O)c(O)c1Cl (stereo partly drawn) [Example 3, (3R)-3-(2-(4-(3-(2-chloro-3,4-dihydroxybenzamido)propyl)-2,3-dioxopiperazine-1-carboxamido)-2-(3-fluoro-5-hydroxypyridin-2-yl)acetamido)-7-fluoro-2-hydroxy-3,4-dihydro-2H-benzo[e][1,2]oxaborinine-8-carboxylic acid] | < 30 µM | D (D represents a potency <10 μM) | 8 to 16 µg/mL (≈ 10.5 to 21 µM) | 32 to 64 µg/mL (≈ 42.1 to 84.1 µM) | > 128 µg/mL | 32 to 64 µg/mL (≈ 42.1 to 84.1 µM) |  |  | 
CCN1CCN(C(=O)NC(C(=O)N[C@H]2Cc3ccc(F)c(C(=O)O)c3OB2O)c2ncc(C(=O)O)cc2F)C(=O)C1=O (stereo partly drawn) [Example 33, 6-(2-(((R)-8-carboxy-7-fluoro-2-hydroxy-3,4-dihydro-2H-benzo[e][1,2]oxaborinin-3-yl)amino)-1-(4-ethyl-2,3-dioxopiperazine-1-carboxamido)-2-oxoethyl)-5-fluoronicotinic acid] |  | D (D represents a potency <10 μM) | 2 to 4 µg/mL (≈ 3.39 to 6.79 µM) | > 128 µg/mL | > 128 µg/mL | > 128 µg/mL | > 128 µg/mL | > 128 µg/mL | 0.5 to 1 µg/mL (≈ 0.849 to 1.7 µM)
Nc1nc(/C(=N/OC[C@H](NC(=O)c2ccc(O)c(O)c2Cl)C(=O)O)C(=O)N[C@H]2Cc3cccc(C(=O)O)c3OB2O)cs1 [Example 6, (R)-3-((Z)-2-(2-aminothiazol-4-yl)-2-(((S)-2-carboxy-2-(2-chloro-3,4-dihydroxybenzamido)ethoxy)imino)acetamido)-2-hydroxy-3,4-dihydro-2H-benzo[e][1,2]oxaborinine-8-carboxylic acid] | 30 to 500 µM | D (D represents a potency <10 μM) |  |  |  |  |  |  | 
CCN1CCN(C(=O)N[C@@H](C(=O)N[C@H]2Cc3cccc(C(=O)O)c3OB2O)c2c(O)cc(O)cc2F)C(=O)C1=O (single isomer, unassigned) [Example 182] | < 30 µM |  | < 0.25 µg/mL | 8 to 16 µg/mL (≈ 14.3 to 28.7 µM) | 8 to 16 µg/mL (≈ 14.3 to 28.7 µM) | 8 to 16 µg/mL (≈ 14.3 to 28.7 µM) | 32 to 64 µg/mL (≈ 57.3 to 115 µM) | > 128 µg/mL | 2 to 4 µg/mL (≈ 3.58 to 7.16 µM)
CCN1CCN(C(=O)N[C@@H](C(=O)N[C@H]2Cc3ccc(F)c(C(=O)O)c3OB2O)c2ccc(O)c(O)c2)C(=O)C1=O [Example 211, (R)-3-((R)-2-(3,4-dihydroxyphenyl)-2-(4-ethyl-2,3-dioxopiperazine-1-carboxamido)acetamido)-7-fluoro-2-hydroxy-3,4-dihydro-2H-benzo[e][1,2]oxaborinine-8-carboxylic acid] | < 30 µM | D (D represents a potency <10 μM) |  |  |  |  |  |  | 
Nc1nc(C(NC(=O)N2CCN(CCNC(=O)c3ccc(O)c(O)c3Cl)C(=O)C2=O)C(=O)N[C@H]2Cc3ccc(F)c(C(=O)O)c3OB2O)c(F)s1 (stereo partly drawn) [Example 4, (3R)-3-(2-(2-amino-5-fluorothiazol-4-yl)-2-(4-(2-(2-chloro-3,4-dihydroxybenzamido)ethyl)-2,3-dioxopiperazine-1-carboxamido)acetamido)-7-fluoro-2-hydroxy-3,4-dihydro-2H-benzo[e][1,2]oxaborinine-8-carboxylic acid] | < 30 µM | D (D represents a potency <10 μM) |  |  |  |  |  |  | 
NCCCN1CCN(C(=O)N[C@@H](C(=O)N[C@H]2Cc3cc(Cl)c(F)c(C(=O)O)c3OB2O)c2c(F)cc(O)c(O)c2Cl)C(=O)C1=O [Example 190, (R)-3-((R)-2-(4-(3-aminopropyl)-2,3-dioxopiperazine-1-carboxamido)-2-(2-chloro-6-fluoro-3,4-dihydroxyphenyl)acetamido)-6-chloro-7-fluoro-2-hydroxy-3,4-dihydro-2H-benzo[e][1,2]oxaborinine-8-carboxylic acid] | < 30 µM | D (D represents a potency <10 μM) |  |  |  |  |  |  | 
CS(=O)(=O)N1CCN(C(=O)NC(C(=O)N[C@H]2Cc3ccc(F)c(C(=O)O)c3OB2O)c2c(Cl)cc(O)c(O)c2F)C1=O (stereo partly drawn) [Example 208, (3R)-3-(2-(6-chloro-2-fluoro-3,4-dihydroxyphenyl)-2-(3-(methylsulfonyl)-2-oxoimidazolidine-1-carboxamido)acetamido)-7-fluoro-2-hydroxy-3,4-dihydro-2H-benzo[e][1,2]oxaborinine-8-carboxylic acid] | < 30 µM | D (D represents a potency <10 μM) |  |  |  |  |  |  | 
O=C(NCCN1CCN(C(=O)NC(C(=O)N[C@H]2Cc3ccc(F)c(C(=O)O)c3OB2O)c2ncc(O)cc2F)C(=O)C1=O)c1c(F)cc(O)c(O)c1Cl (stereo partly drawn) [Example 5, (3R)-3-(2-(4-(2-(2-chloro-6-fluoro-3,4-dihydroxybenzamido)ethyl)-2,3-dioxopiperazine-1-carboxamido)-2-(3-fluoro-5-hydroxypyridin-2-yl)acetamido)-7-fluoro-2-hydroxy-3,4-dihydro-2H-benzo[e][1,2]oxaborinine-8-carboxylic acid] | < 30 µM | D (D represents a potency <10 μM) |  |  |  |  |  |  | 
C[C@H]1CN(CCNC(=O)c2ccc(O)c(O)c2Cl)C(=O)C(=O)N1C(=O)NC(C(=O)N[C@H]1Cc2cccc(C(=O)O)c2OB1O)c1ncc(O)cc1F (stereo partly drawn) [Example 2, (3R)-3-(2-((S)-4-(2-(2-chloro-3,4-dihydroxybenzamido)ethyl)-6-methyl-2,3-dioxopiperazine-1-carboxamido)-2-(3-fluoro-5-hydroxypyridin-2-yl)acetamido)-2-hydroxy-3,4-dihydro-2H-benzo[e][1,2]oxaborinine-8-carboxylic acid] | < 30 µM | D (D represents a potency <10 μM) | 0.5 to 1 µg/mL (≈ 0.673 to 1.35 µM) | 2 to 4 µg/mL (≈ 2.69 to 5.38 µM) | 8 to 16 µg/mL (≈ 10.8 to 21.5 µM) | 2 to 4 µg/mL (≈ 2.69 to 5.38 µM) |  |  | 
CCN1CCN(C(=O)N[C@H](C(=O)N[C@H]2Cc3ccc(F)c(C(=O)O)c3OB2O)c2ccc(O)c(O)c2)C(=O)C1=O [Example 210, (R)-3-((S)-2-(3,4-dihydroxyphenyl)-2-(4-ethyl-2,3-dioxopiperazine-1-carboxamido)acetamido)-7-fluoro-2-hydroxy-3,4-dihydro-2H-benzo[e][1,2]oxaborinine-8-carboxylic acid] | > 500 µM |  |  |  |  |  |  |  | 
